These results are taken from PubChem BioAssay AID1259407 (Chemical Carcinogenesis Research Information System (CCRIS), 2018).

The series has as its system CCRIS mutagenicity, Ames/micronucleus/aberration tests. Briefly: CCRIS mutagenicity studies.
Where [1] appears, read: Test System: AMES SALMONELLA TYPHIMURIUM, Strain/Indicator: TA97, Metabolic Activation: NONE, Method: STANDARD PLATE.
Setting [2] is: Test System: AMES SALMONELLA TYPHIMURIUM, Strain/Indicator: TA97, Metabolic Activation: RAT, LIVER, S-9, AROCLOR 1254, Method: STANDARD PLATE.
Setting [3] is: Test System: AMES SALMONELLA TYPHIMURIUM, Strain/Indicator: TA98, Metabolic Activation: NONE, Method: STANDARD PLATE.
Setting [4] is: Test System: AMES SALMONELLA TYPHIMURIUM, Strain/Indicator: TA98, Metabolic Activation: RAT, LIVER, S-9, AROCLOR 1254, Method: STANDARD PLATE.
Where [5] appears, read: Test System: AMES SALMONELLA TYPHIMURIUM, Strain/Indicator: TA100, Metabolic Activation: NONE, Method: STANDARD PLATE.
[6] abbreviates: Test System: AMES SALMONELLA TYPHIMURIUM, Strain/Indicator: TA100, Metabolic Activation: RAT, LIVER, S-9, AROCLOR 1254, Method: STANDARD PLATE.

Molecules are shown by their SMILES. Activity calls are given as the source filed them. No rule for the calls is given here.

Take `COC1=CC(=O)c2c(nc(C)c3c2[nH]c2ccccc23)C1=O`: the mutagenic call runs as follows: under setting [1], “active; positive”; under setting [2], “active; positive”; (Test System: AMES SALMONELLA TYPHIMURIUM, Strain/Indicator: TA97A, Metabolic Activation: NONE, Method: STANDARD PLATE) “active; positive”; (Test System: AMES SALMONELLA TYPHIMURIUM, Strain/Indicator: TA97A, Metabolic Activation: RAT LIVER S-9, AROCLOR 1254, Method: STANDARD PLATE) “active; positive”; under setting [3], “active; positive”; (Test System: AMES SALMONELLA TYPHIMURIUM, Strain/Indicator: TA98, Metabolic Activation: RAT LIVER S-9, AROCLOR 1254, Method: STANDARD PLATE) “active; positive”. Moreover, the mutagenic call is “active; positive” under setting [4]; “active; positive” under setting [5]; “active; positive” (Test System: AMES SALMONELLA TYPHIMURIUM, Strain/Indicator: TA100, Metabolic Activation: RAT LIVER S-9, AROCLOR 1254, Method: STANDARD PLATE); “active; positive” under setting [6]; “inactive; negative” (Test System: AMES SALMONELLA TYPHIMURIUM, Strain/Indicator: TA102, Metabolic Activation: RAT LIVER S-9, AROCLOR 1254, Method: STANDARD PLATE); “inactive; negative” (Test System: AMES SALMONELLA TYPHIMURIUM, Strain/Indicator: TA102, Metabolic Activation: RAT, LIVER, S-9, AROCLOR 1254, Method: STANDARD PLATE).

For `CC(C)(c1ccc(OCC2CO2)cc1)c1ccc(OCC2CO2)cc1` (centres undefined), the mutagenic call runs as follows: (Test System: AMES SALMONELLA TYPHIMURIUM, Strain/Indicator: TA100, Metabolic Activation: HAMSTER, LIVER, S-9, AROCLOR 1254 (10%), Method: PREINCUBATION) “active; positive”; (Test System: AMES SALMONELLA TYPHIMURIUM, Strain/Indicator: TA100, Metabolic Activation: NONE, Method: PREINCUBATION) “active; positive”; under setting [5], “active; positive”; (Test System: AMES SALMONELLA TYPHIMURIUM, Strain/Indicator: TA100, Metabolic Activation: RAT LIVER S-9, PHENOBARBITAL/METHYLCHOLANTHRENE (2 OR 10%), Method: STANDARD PLATE) “active; positive”; (Test System: AMES SALMONELLA TYPHIMURIUM, Strain/Indicator: TA100, Metabolic Activation: RAT LIVER S-9, PHENOBARBITAL/METHYLCHOLANTHRENE (4%), Method: STANDARD PLATE) “active; positive”; (Test System: AMES SALMONELLA TYPHIMURIUM, Strain/Indicator: TA100, Metabolic Activation: RAT, LIVER, S-9, AROCLOR 1254 (10%), Method: PREINCUBATION) “active; positive”. The mutagenic call is, setting by setting: (Test System: AMES SALMONELLA TYPHIMURIUM, Strain/Indicator: TA1535, Metabolic Activation: HAMSTER, LIVER, S-9, AROCLOR 1254 (10%), Method: PREINCUBATION) “active; positive”; (Test System: AMES SALMONELLA TYPHIMURIUM, Strain/Indicator: TA1535, Metabolic Activation: NONE, Method: PREINCUBATION) “active; positive”; (Test System: AMES SALMONELLA TYPHIMURIUM, Strain/Indicator: TA1535, Metabolic Activation: NONE, Method: STANDARD PLATE) “inactive; negative”; (Test System: AMES SALMONELLA TYPHIMURIUM, Strain/Indicator: TA1535, Metabolic Activation: RAT LIVER S-9, PHENOBARBITAL/METHYLCHOLANTHRENE (4, 10 OR 20%), Method: STANDARD PLATE) “active; positive”; (Test System: AMES SALMONELLA TYPHIMURIUM, Strain/Indicator: TA1535, Metabolic Activation: RAT, LIVER, S-9, AROCLOR 1254 (10%), Method: PREINCUBATION) “active; positive”; (Test System: E. coli, Strain/Indicator: IC3327, Metabolic Activation: None, Method: Standard Plate) “active; positive”. Besides, the mutagenic call (Test System: E. coli, Strain/Indicator: IC3327, Metabolic Activation: Rat, Liver, S-9, Phenobarbital-methylcholanthrene mix (4%) + 4 mM NADP, Method: Standard Plate) was “active; positive”; the mutagenic call (Test System: E. coli, Strain/Indicator: IC3327, Metabolic Activation: Rat, Liver, S-9, Phenobarbital-methylcholanthrene mix (4%), Method: Standard Plate) is “active; positive”; the mutagenic call (Test System: E. coli, Strain/Indicator: WP2 UVRA, Metabolic Activation: None, Method: Standard Plate) was “active; positive”; the mutagenic call (Test System: E. coli, Strain/Indicator: WP2 UVRA, Metabolic Activation: Rat, Liver, S-9, Phenobarbital-methylcholanthrene mix (4%) + 4 mM NADP, Method: Standard Plate) is “inactive; negative (authors report as positive based on slope but revertants <2x backgroun”; the mutagenic call (Test System: E. coli, Strain/Indicator: WP2 UVRA, Metabolic Activation: Rat, Liver, S-9, Phenobarbital-methylcholanthrene mix (4%), Method: Standard Plate) was “active; positive”.

Regarding `O=CC(Cl)=C(Cl)Cl`, the mutagenic call is “active; positive” under setting [3] and “active; positive” under setting [5].

In the case of `Nc1ccc2snc(Cl)c2c1`, the mutagenic call under setting [5] is “active; positive”.

As for `[O]=[V]([OH])([OH])[OH]`, the mutagenic call (End Point: IN VIVO MICRONUCLEUS, Test System: POLYCHROMATIC ERYTHROCYTES, Species: MOUSE, Strain/Sex: (102/E1 X C3H/E1)F1/MALE, Route: IP INJECTION) was “inactive; negative”.

On to `CC(C)(C)NCC(O)COc1ccccc1C1=CCCC1` (centres undefined), for which the mutagenic call was “inactive; negative” under setting [3] and “inactive; negative” under setting [4].

Consider `ClC(Cl)(Cl)Br`, for which the mutagenic call was “active; positive” under setting [1]; “active; positive” under setting [2]; “active; positive” under setting [3]; “inactive; negative” under setting [4]; “inactive; negative” under setting [5]; “inactive; negative” under setting [6]. For the same compound, the mutagenic call is “active; positive” (Test System: AMES SALMONELLA TYPHIMURIUM, Strain/Indicator: TA104, Metabolic Activation: NONE, Method: STANDARD PLATE) and “active; positive” (Test System: AMES SALMONELLA TYPHIMURIUM, Strain/Indicator: TA104, Metabolic Activation: RAT, LIVER, S-9, AROCLOR 1254, Method: STANDARD PLATE).

With `CCN(CC)c1ccc2nc3ccc(=[N+](CC)CC)cc-3oc2c1`, the mutagenic call (Test System: AMES SALMONELLA TYPHIMURIUM, Strain/Indicator: TA98, Metabolic Activation: HAMSTER, LIVER, S-9, AROCLOR 1254 (10%), Method: STANDARD PLATE) is “inactive; negative”; the mutagenic call under setting [3] is “active; positive”; the mutagenic call (Test System: AMES SALMONELLA TYPHIMURIUM, Strain/Indicator: TA98, Metabolic Activation: RAT, LIVER, S-9, AROCLOR 1254 (10%), Method: STANDARD PLATE) was “inactive; negative”; the mutagenic call (Test System: AMES SALMONELLA TYPHIMURIUM, Strain/Indicator: TA100, Metabolic Activation: HAMSTER, LIVER, S-9, AROCLOR 1254 (10%), Method: STANDARD PLATE) is “inactive; negative”; the mutagenic call under setting [5] was “inactive; negative”; the mutagenic call (Test System: AMES SALMONELLA TYPHIMURIUM, Strain/Indicator: TA100, Metabolic Activation: RAT, LIVER, S-9, AROCLOR 1254 (10%), Method: STANDARD PLATE) is “inactive; negative”. The mutagenic call is, setting by setting: (Test System: Ames Salmonella typhimurium, Strain/Indicator: TA98, Metabolic Activation: None, Method: Preincubation) “inactive; negative”; (Test System: Ames Salmonella typhimurium, Strain/Indicator: TA98, Metabolic Activation: Rat, Liver, S-9, Aroclor 1254, Method: Preincubation) “inactive; negative”; (Test System: Ames Salmonella typhimurium, Strain/Indicator: TA100, Metabolic Activation: None, Method: Preincubation) “inactive; negative”; (Test System: Ames Salmonella typhimurium, Strain/Indicator: TA100, Metabolic Activation: Rat, Liver, S-9, Aroclor 1254, Method: Preincubation) “inactive; negative”; (Test System: Ames Salmonella typhimurium, Strain/Indicator: TA102, Metabolic Activation: None, Method: Preincubation) “inactive; negative”; (Test System: Ames Salmonella typhimurium, Strain/Indicator: TA102, Metabolic Activation: Rat, Liver, S-9, Aroclor 1254, Method: Preincubation) “inactive; negative”. The mutagenic call runs as follows: (Test System: Ames Salmonella typhimurium, Strain/Indicator: TA1535, Metabolic Activation: None, Method: Preincubation) “inactive; negative”; (Test System: Ames Salmonella typhimurium, Strain/Indicator: TA1535, Metabolic Activation: Rat, Liver, S-9, Aroclor 1254, Method: Preincubation) “inactive; negative”; (Test System: MOUSE LYMPHOMA, Strain/Indicator: L5178Y (TK+/TK-), Metabolic Activation: NONE, Method: SUSPENSION/PLATE) “active; positive. reevaluation of results: positive”; (Test System: MOUSE LYMPHOMA, Strain/Indicator: L5178Y (TK+/TK-), Metabolic Activation: RAT, LIVER, S-9, AROCLOR 1254, Method: SUSPENSION/PLATE) “active; positive. reevaluation of results: positive”.
